Measured values as given in patent US20050020576A1, “Kappa agonist compounds and pharmaceutical formulations thereof” (priority 1996, published 2005).
Where “and” joins values, the source holds several entries; their conditions need not be identical. Equal values may be shown once. Where a name gives a salt, the structure may show the parent alone.

Experiments:
[1] = target: T1, cloned human kappa receptor (Homo sapiens, UniProt P41145); assay: [3H]U69593 (agonist) binding to the cloned human kappa receptor
[2] = system: formalin-induced flinching; assay: animal or person; format: in vivo, male Sprague-Dawley rats; conditions: rat, in vivo
[3] = target: T1, cloned human kappa receptor; assay: biochemical; format: binding; set-up: (3H)-Diprenorphin, % / k [3H] Diprenorphin, %: dose or concentration left out as unconfirmed; conditions: for inhibition at 1 µM: read-out: 3H-Diprenorphin, % @ 1 uM
[4] = Table I, read-out: Ki, nM 3H-Diprenorphin

T1 sequence (P41145 whole entry): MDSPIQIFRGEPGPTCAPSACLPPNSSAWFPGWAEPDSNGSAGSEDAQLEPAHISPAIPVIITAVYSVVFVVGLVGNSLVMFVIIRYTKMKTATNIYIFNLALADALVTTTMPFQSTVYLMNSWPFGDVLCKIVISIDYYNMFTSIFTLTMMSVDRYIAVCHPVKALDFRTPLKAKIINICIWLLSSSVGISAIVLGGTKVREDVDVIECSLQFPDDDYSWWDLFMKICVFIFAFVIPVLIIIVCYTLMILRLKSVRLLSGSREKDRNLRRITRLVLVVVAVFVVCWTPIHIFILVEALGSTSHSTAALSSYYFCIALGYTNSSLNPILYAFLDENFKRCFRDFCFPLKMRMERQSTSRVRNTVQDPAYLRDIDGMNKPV

SMILES	Ki ([1]; Ki, nM 3H-U-69,593)	Late Phase Formalin, % @ 300; i.paw [2]	Ki ([3]; Ki, nM 3H-Diprenorphin)	also measured
Cl.Cl.O=C(O)CN1CCN(C(=O)Cc2ccc(Cl)c(Cl)c2)[C@H](CN2CCCC2)C1 [(R-3c), (R)-4-[(3,4-dichlorophenyl)acetyl]-3-[(1-pyrrolidinyl)methyl]-1-piperazineacetic acid dihydrochloride]	23 nM and 21 nM	26% @ 300	–	melting point: 190 °C (dec.); inhibition at 1 µM [3]: 62%
O=C(Cc1ccc(C(F)(F)F)cc1)N1CCN(Cc2ccccc2)CC1CN1CCCC1 (centres unmarked) [(R.S-11)]	0.39 nM and 0.57 nM	92% @ 300	2.2 nM and 2.4 nM	–
COC(=O)N1CCN(C(=O)Cc2ccc(Cl)c(Cl)c2)C(CN2CCCC2)C1 (centres unmarked) [GR 89696, reference compound]	1.6 nM and 1.5 nM	–	0.095 nM and 0.1 nM	Late Phase Formalin A50 (mg); i.paw [2]: 0.35(0.20-0.62) mg
Cc1ccc(S(=O)(=O)N2CCN(C(=O)Cc3ccc(Cl)c(Cl)c3)[C@H](CN3CCCC3)C2)cc1 [(R-3l), (R)-4-(4-Methyphenylsulfonyl)-1-[(3,4-dichlorophenyl)acetyl]-2-[(1-Pyrrolidinyl)methyl]-piperazine hydrochloride]	6.2 nM	24% @ 300	–	Ki [3, 4]: 120 nM
COC(=O)N1CCN(C(=O)Cc2ccc(S(C)(=O)=O)cc2)C(CN2CCCC2)C1 (racemic) [(R,S-9a), (R,S)-Methyl 4-[(4-methylsulfonylphenyl)acetyl]-3-[(1-pyrrolidinyl)-methyl]-1-piperazinecarboxylate hydrochloride]	0.37 nM and 0.42 nM	46% @ 300	11 nM	–
CCOP(=O)(OCC)N1CCN(C(=O)Cc2ccc(Cl)c(Cl)c2)[C@H](CN2CCCC2)C1 [(R-3g), (R)-4-(Diethoxyphosphonate)-1-[(3,4-dichlorophenyl)acetyl]-2-[(1-pyrolidinyl)methyl]-piperazine hydrochloride]	1.3 nM and 1.4 nM	54% @ 300	99 nM and 33 nM	–
COC(=O)N1CCN(C(=O)Cc2c[nH]c3ccccc23)C(CN2CCCC2)C1 (racemic) [(R,S-9c), (R,S)-Methyl 4-[(3-indolyl)acetyl]-3-[(1-pyrrolidinyl)-methyl]-1-piperazine-carboxylate hydrochloride]	0.27 nM and 0.4 nM	95% @ 300	3 nM	–
O=C(Cc1ccc(Cl)c(Cl)c1)N1CCN(C(=O)C(F)(F)F)C[C@H]1CN1CCCC1 [(R-3h), (R)-4-Trifluoroacetyl-1-(3,4-dichlorophenyl)acetyl]-2-[(1-pyrrolidinyl)methyl]-piperazine hydrochloride]	0.26 nM and 0.16 nM	94% @ 300	6.9 nM and 1.8 nM	–
CC(=O)N1CCN(C(=O)Cc2ccc(S(C)(=O)=O)cc2)C(CN2CCCC2)C1 (racemic) [(R,S-10a), hydrochloride]	2.3 nM	6% @ 300	–	inhibition at 1 µM [3]: 27%
CC(C)(C)CC(=O)N1CCN(C(=O)Cc2ccc(Cl)c(Cl)c2)[C@H](CN2CCCC2)C1 [(R-3b), (R)-4-t-Butyl-acetyl-1-[(3,4-dichlorophenyl)acetyl]-2-[(1-pyrrolidinyl)methyl]-piperazine]	–	–	–	3H-U-69,593, % @ 1 uM [1]: 75% @ 1 uM; Late Phase Formalin column, % I @ 1 μM [2]: 75% I @ 1 μM; 3H-Diprenorphin, % @ 1 uM [3]: 30% @ 1 uM
CCOP(=O)(CCNc1ccc2c(c1)[C@H](N(C)C(=O)Cc1ccc(Cl)c(Cl)c1)[C@@H](N1CCCC1)CC2)OCC (racemic) [II-13]	–	–	–	Ki ([1]; Ki (nM) k (mg) [3H]U69,593): 2.2 nM; Ki ([3]; Ki (nM) k [3H] Diprenorphin): 6.2 nM
CS(=O)(=O)c1ccc(CC(=O)N2CCN(S(C)(=O)=O)CC2CN2CCCC2)cc1 (racemic) [(R,S-8b), (R,S)-4-Methanesulfonyl-1-[(4-methylsulfonylphenyl)acetyl]-2-[(1-pyrrolidinyl)-methyl]piperazine hydrochloride]	20 nM and 31 nM	–	–	inhibition at 1 µM [3]: 41%
Cl.O=C(Cc1ccc(Cl)c(Cl)c1)N1CCNC[C@@H]1CN1CCCC1 [(R-2), (R)-1-[(3,4-Dichlorophenyl)acetyl]-2-[(1-pyrrolidinyl)methyl]piperazine hydrochloride]	1.5 nM and 1.3 nM	57% @ 300	14 nM and 17 nM	–
COC(=O)N1CCN(C(=O)Cc2ccccc2N)C(CN2CCCC2)C1 (racemic) [(R,S-9f), (R,S)-Methyl 4-[(2-aminophenyl)acetyl]-3-[(1-pyrrolidinyl)-methyl]-1-piperazine-carboxylate dihydrochloride]	0.67 nM and 0.41 nM	97% @ 300	4.6 nM and 3.2 nM	–
CN(C(=O)C(c1ccccc1)c1ccccc1)[C@H]1c2ccccc2C[C@@H]1N1CCCC1 (racemic) [II-20]	–	–	–	Ki [1]: 146 nM; k [3H] Diprenorphin, % [3]: 29% @ 1 mM
CC(=O)N1CCN(C(=O)Cc2ccccc2[N+](=O)[O-])C(CN2CCCC2)C1 (racemic) [(R,S-10e), (R,S)-4-Acetyl-1-[(2-nitrophenyl)acetyl]-3-[(1-pyrrolidinyl)-methyl]piperazine-carboxylate hydrochloride]	24 nM	–	–	Ki [3, 4]: 541 nM

SMILES	Ki ([1]; Ki, nM 3H-U-69,593)	Late Phase Formalin, % @ 300; i.paw [2]	Ki ([3]; Ki, nM 3H-Diprenorphin)	also measured
Cl.Cl.NC(CC(=O)O)C(=O)N1CCN(C(=O)Cc2ccc(Cl)c(Cl)c2)[C@H](CN2CCCC2)C1 (stereo partly drawn) [(R-3e), (R)-4-Aspartic acid-1-[(3,4-dichlorophenyl)acetyl]-2-[(1-pyrrolidinyl)methyl]-piperazine dihydrochloride]	–	22% A @ 300	–	Ki ([1]; dihydrochloride, read-out: Ki, nM 3H-U-69,593): 37 nM and 28 nM; 3H-Diprenorphin, % @ 1 uM [3]: 39% @ 1 uM
CN(C(=O)Cc1ccc(Cl)c(Cl)c1)[C@H]1c2cc(S(=O)(=O)N(C)Cc3ccccc3)ccc2CC[C@@H]1N1CCCC1 (racemic) [II-16]	–	–	–	Ki ([1]; Ki (nM) k (mg) [3H]U69,593): 40 nM; Ki ([3]; Ki (nM) k [3H] Diprenorphin): 200 nM
CN(C(=O)Cc1ccc(Cl)c(Cl)c1)[C@H]1c2cc(N(CC(=O)O)CC(=O)O)ccc2CC[C@@H]1N1CCCC1 (racemic) [II-12]	–	–	–	Ki ([1]; Ki (nM) k (mg) [3H]U69,593): 0.68 nM; Ki ([3]; Ki (nM) k [3H] Diprenorphin): 3.8 nM
CS(=O)(=O)N1CCN(C(=O)Cc2ccc(Cl)c(Cl)c2)C(CN2CCCC2)C1 (racemic) [(R,S-8a), (R,S)-4-Methanesulfonyl-1-[(3,4-dichlorophenyl)acetyl]-2-[(1-pyrrolidinyl)methyl]-piperazine hydrochloride]	0.37 nM and 0.65 nM	96% @ 300	5.4 nM and 4 nM	–
CN(C(=O)C(c1ccccc1)c1ccccc1)C1CCCCC1N1CCCC1 (racemic) [Example 5s, (±)-trans-N-Methyl-N-[2-(1-pyrrolidinyl)cyclohexyl]2,2-dphenylacetamide Hydrochloride]	–	–	–	Ki ([1]; Ki(nM) U-69593): 330 nM; Ki ([3]; Ki(nM) diprenorphine): 1170 nM
CS(=O)(=O)N1CCN(C(=O)Cc2ccc(C(F)(F)F)cc2)C(CN2CCCC2)C1 (racemic) [(R,S-8d), (R,S)-4-Methanesulfonyl-1-[(4-trifluoromethylphenyl)acetyl]-2-[(1-pyrrolidinyl)-methyl]piperazine hydrochloride]	1.3 nM and 1.9 nM	97% @ 300	16 nM and 17 nM	–
CC(=O)N1CCN(C(=O)Cc2ccc([N+](=O)[O-])cc2)C(CN2CCCC2)C1 (racemic) [(R,S-10f), hydrochloride]	2.4 nM	–	–	inhibition at 1 µM [3]: 59%
COC(=O)N1CCN(C(=O)Cc2ccc(C(F)(F)F)cc2)C(CN2CCCC2)C1 (racemic) [(R,S-9b), (R,S)-Methyl 4-[(4-trifluoromethylphenyl)acetyl]-3-[(1-pyrrolidinyl)-methyl]-1-piperazinecarboxylate hydrochloride]	0.076 nM and 0.13 nM	98% @ 300	0.49 nM	–
COC(=O)N1CCN(C(=O)Cc2ccccc2[N+](=O)[O-])C(CN2CCCC2)C1 (racemic) [(R,S-9d), (R,S)-Methyl 4-[(2-nitrophenyl)acetyl]-3-[(1-Pyrrolidinyl)-methyl]-1-piperazine-carboxylate hydrochloride]	0.74 nM and 0.73 nM	93% @ 300	37 nM	–
CC(=O)N1CCN(C(=O)Cc2ccccc2C(F)(F)F)C(CN2CCCC2)C1 (racemic) [(R,S-10c), (R,S)-4-Acetyl-1-[(2-trifluoromethylphenyl)acetyl]-3-[(1-pyrrolidinyl)-methyl]piperazinecarboxylate hydrochloride]	16 nM	–	–	inhibition at 1 µM [3]: 45%
Cl.NC(=O)N1CCN(C(=O)Cc2ccc(Cl)c(Cl)c2)[C@H](CN2CCCC2)C1 [(R-3i), (R)-4-[(3,4-Dichlorophenyl)acetyl]-3-[(1-pyrrolidinyl)methyl]-1-piperazinecarboxamide hydrochloride]	2.9 nM	68% @ 300	56 nM and 29 nM	–
CCOC(=O)CN(CC(=O)OCC)c1ccc2c(c1)[C@H](N(C)C(=O)Cc1ccc(Cl)c(Cl)c1)[C@@H](N1CCCC1)CC2 (racemic) [II-10]	–	–	–	Ki ([1]; Ki (nM) k (mg) [3H]U69,593): 0.68 nM; Late Phase Formalin, % A @ 300 [2]: 37% A @ 300; Ki ([3]; Ki (nM) k [3H] Diprenorphin): 4.6 nM
CC(C)(C)OC(=O)N[C@H](CC(=O)OCc1ccccc1)C(=O)N1CCN(C(=O)Cc2ccc(Cl)c(Cl)c2)[C@H](CN2CCCC2)C1 [(R-3d), (R)-4-N-t-Boc-D-aspartic acid-β-benzyl ester-1-[(3,4-dichlorophenyl)acetyl]-2-[(1-pyrrolidinyl)methyl]-piperazine]	–	–	–	Ki ([1]; read-out: Ki, nM 3H-U-69,593): 379 nM and 249 nM; 3H-Diprenorphin, % @ 1 uM [3]: 36% @ 1 uM
CN(C(=O)C(c1ccccc1)c1ccccc1)[C@H]1c2cc(O)ccc2CC[C@@H]1N1CCCC1 (racemic) [II-4]	–	–	–	Ki ([1]; Table II, read-out: Ki (nM) k (mg) [3H]U69,593): 432 nM; Ki ([3]; Table II, read-out: Ki (nM) k [3H] Diprenorphin): 549 nM
COC(=O)N1CCN(C(=O)Cc2ccccc2OC)C(CN2CCCC2)C1 (racemic) [(R,S-9e), hydrochloride]	0.46 nM and 1.3 nM	98% @ 300	7.3 nM	–
